According to patent US3948898A, “1,3-Dioxo-2-aminoalkyl-4,4-dimethyl-isoquinolines and salts thereof” (Boehringer Ingelheim GmbH, priority 1973, dated 1976):
Structures can show the parent of a compound that is named as a salt.

Tests used:
[1] = hypotensive activity in anesthetized mongrel dogs (i.v.); format: in vivo
Procedure: The test compounds were injected intravenously into the vena saphena in aqueous solution. The arterial bloodpressure was measured before and after administration in the arteria femoralis by means of a […]-pressure transducer and registered on a Grass-polygraph.

[2] = acute toxicity in mice after oral application (LD50); conditions: mouse, in vivo, p.o., observation time 14 days
Procedure: The acute toxicity of the compounds was tested in mice (observation time: 14 days) after oral application. The LD50 was calculated from the percentage of the animals which died within the observation time after application of varying doses [see J. Pharmacol. exper. Therap.

Row | SMILES | Decrease of bloodpressure diast. ([1]; 0.05 mg/kg i.v.) [mm Hg] | Decrease of bloodpressure syst. ([1]; 0.05 mg/kg i.v.) [mm Hg] | Duration of activity ([1]; 0.05 mg/kg i.v.) [min] | Decrease of bloodpressure diast. ([1]; 0.1 mg/kg i.v.) [mm Hg] | Decrease of bloodpressure syst. ([1]; 0.1 mg/kg i.v.) [mm Hg] | Duration of activity ([1]; 0.1 mg/kg i.v.) [min] | LD50 at 336 h [2] [mg/kg] | Decrease of bloodpressure diast. ([1]; 0.5 mg/kg i.v.) [mm Hg] | Decrease of bloodpressure syst. ([1]; 0.5 mg/kg i.v.) [mm Hg] | Duration of activity ([1]; 0.5 mg/kg i.v.) [min] | Decrease of bloodpressure diast. ([1]; 1.0 mg/kg i.v.) [mm Hg] | Decrease of bloodpressure syst. ([1]; 1.0 mg/kg i.v.) [mm Hg] | Duration of activity ([1]; 1.0 mg/kg i.v.) [min]
1 | COc1ccccc1N1CCN(CCN2C(=O)c3ccccc3C(C)(C)C2=O)CC1.Cl.Cl [A, 1-[4,4-dimethyl-1,3-dioxo-(2H,4H)-isoquinolin-2-yl]-2-[4-(2-methoxy-phenyl)-piperazin-1-yl]-ethane dihydrochloride] | -31 | -27 | 53 | -34 | -33 | 47 | 850 | – | – | – | – | – | –
2 | COc1ccc2c(c1)C(=O)N(CCCNCCc1ccc(OC)c(OC)c1)C(=O)C2(C)C [B, 1-[4,4-dimethyl-7-methoxy-1,3-dioxo-(2H,4H)-isoquinolin-2-yl]-3-[2-(3,4-dimethoxy-phenyl)-ethylamine]propane hydrochloride] | – | – | – | – | – | – | 775 | -36 | -32 | 35 | -40 | -36 | 40
